# Laboratory results reported in PubChem BioAssay AID651717 (Broad Institute, 2012).
# Test system: mESC Bmi1-luciferase reporter, firefly/renilla ratio, 24 h
# Experiment: Bmi1-luciferase reporter activators in mESC, dose response, esBAF inhibitor project, mouse embryonic stem cells, cherry-pick (AID 651717);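 also: luciferase knocked into Bmi1 locus with EF-1a renilla as cell number control; rising ratio signals esBAF inhibition which derepresses Bmi1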
row,SMILES,AC40 [µM]
1,N/C(=N\OC(=O)c1cccnc1)c1ccccc1Cl,23.6
2,O=c1c2ccccc2oc2cc(Br)ccc12,7.16
3,Cc1cc(F)ccc1-c1cc(C(=O)NC2CCCCC2)[nH]n1,9.06
4,COc1ccc(NC(=O)Nc2cc(C)ccc2F)cc1,0.738
5,O=C(CNC(=O)c1ccccc1F)Nc1ccc2c(c1)OCO2,3.55
6,CSc1ccc(/C=N/NC(=O)c2ccccc2Cl)cc1,6.47
7,CC(=O)Nc1ccc2c(c1Br)Cc1ccccc1-2,2.53
8,OC(c1cccc(F)c1)c1ncc(-c2ccc3ccccc3c2)[nH]1 (configuration not stated),9.76
9,CC(=O)Nc1cnc(-c2cc(C)c(O)c(C)c2)cn1,12
10,COc1ccc(-c2cnc(C(O)c3ccccc3)[nH]2)cc1 (configuration not stated),1.15
11,COc1ccc(C(=O)Nc2ccc(C3CC3(Cl)Cl)cc2)cc1 (configuration not stated),7.09
12,CNc1nc(-c2ccc3c(c2)CCN3C(=O)c2ccc(F)cc2)cs1,8.13
13,CCCn1cnc2cc(NCc3ccccc3O)ccc21,17.2
14,Oc1[nH]c2ccccc2c1/C=N/c1nccs1,4.59
15,COc1cc2ccccc2cc1C(=O)Nc1ccccc1C,1.85
16,COC(=O)N1CCCC(c2cc(C(=O)Nc3ccccc3Cl)no2)C1 (configuration not stated),3.3
17,COC(=O)c1c(-c2ccc(S(C)(=O)=O)cc2)sc2ccc(OC)cc12,0.954
18,O=C(Nc1ccc(Cl)c(Cl)c1)c1ccccc1NC(=O)C1CC=CCC1C(=O)O (configuration not stated),7.6
19,Cc1ccc2c(CN(C)Cc3ccccc3)cc(=O)oc2c1,1.82
20,CC(C)c1ccc(C(O)c2cnc(C(C)C)n2C)cc1 (configuration not stated),4.11
21,CN(Cc1ccccn1)C(=O)c1cc(COc2ccc(F)c(F)c2)on1,3.82

row,SMILES,AC40 [µM]
1,Cc1ccc(NC(=O)C2CC3CCC2C3)c(Br)c1 (configuration not stated),1.22
2,Cn1cccc1C(=O)NC1CCCCCC1,3.74
3,COc1ccc(CCn2nnc3ccccc3c2=O)cc1OC,4.92
4,Cc1ccc(-n2nnc(-c3cccnc3)n2)cc1,0.926
5,CCn1c(=N)n(CC(=O)c2cccc(OC)c2)c2ccccc21,8.58
6,Cc1ccc(Nc2nc(-c3cccnc3)cs2)cc1Cl,0.961
7,O=C(Nc1ccc(-c2cnco2)cc1)c1ccc(F)cc1F,4.28
8,Cc1ccc(NC(=O)Nc2ccc(F)cc2)cc1Cl,3.4
9,Cc1ccc(C(=O)NCC(=O)Nc2ccc3c(c2)CCC3)cc1,1.44
10,COc1ccc(/C=C2/SC(=O)N(CCNC(=O)CC(NC(C)=O)c3ccccc3)C2=O)cc1 (configuration not stated),10.2
11,COc1ccc(Nc2nc(C)c(C(C)=O)s2)cc1,4.13
12,O=C(Nc1ccc(F)c(Cl)c1)c1cc(C2CCCN(C(=O)C3CC3)C2)on1 (configuration not stated),< 0.26
13,CCC(C)NC(=O)c1cc(-c2ccccc2O)on1 (configuration not stated),11.1
14,O=C(NC1CCCCC1)N1CCc2ccccc2C1,6.76
15,Cc1ccc(NC(=O)O/N=C/c2ccc(F)cc2)cc1,8.83
16,COc1ccc(C(=O)CNc2cccc(F)c2)cc1,16.4
17,c1ccc(-c2cc3ccccc3[nH]2)cc1,5.17
18,Cc1ccc(NC(=O)c2ccnc(C(C)(C)C)c2)cc1,1.95
19,CC(=O)c1ccc(N2CCN(C(=O)c3ccc(Cn4c(=S)[nH]c5ccc(N6CCOCC6)cc5c4=O)cc3)CC2)cc1,24.8
20,Nc1ccccc1/C=C/c1ccccc1N,2.4
21,CCCCc1nc2cc(C(=O)N3CCCCC3C(=O)OC)ccc2o1 (configuration not stated),13

row,SMILES,AC40 [µM]
1,CN(C(=O)c1ccc2c(Cl)c3c(nc2c1)CCC3)c1ccccc1,6.63
2,CCC(C)(C)C1CCc2[nH]nc(C(=O)NC3CCCCC3)c2C1 (configuration not stated),6.44
3,COc1ccc(C2=NN(C(=O)c3ccccc3C(=O)O)C(c3ccccc3O)C2)cc1 (configuration not stated),6.57
4,CC(=O)N(/N=C1\Sc2ccccc2C1=O)c1ccccc1,< 0.26
5,Cc1ccc(-c2nc3ccccc3[nH]2)cn1,3.49
6,CCCC1c2ccc(C)n2CCN1C(=O)Nc1ccccc1Cl (configuration not stated),6.07
7,CCn1c2ccccc2c2cc(NC(=O)N3CCCCC3)ccc21,1.19
8,N#CC(c1ccccc1O)N1N=C(c2ccccc2)CC1c1ccccc1 (configuration not stated),1.43
9,Clc1ccc(-n2nnc(-c3ncc[nH]3)n2)cc1Cl,11.6
10,O=C(CCNS(=O)(=O)c1cccs1)N1CCc2ccccc2C1,6.72
11,CN(C)c1ccc(-c2ccc3oc(-c4ccsc4)cc(=O)c3c2)cn1,2.73
12,COc1ccc(-c2nnn(Cc3ccccc3)n2)cc1,0.621
13,COc1ccc(CCC(=O)N2CCc3ccccc32)cc1,5.22
14,COC(=O)CN(C)C(=O)c1ccc2nc(Cc3cccc(Cl)c3)oc2c1,2.4
15,CCN1CCN(c2ccc(NC(=O)c3cccc(N4CCCC4=O)c3)cc2)CC1,10.3
16,CN(C)c1ccc(C=Cc2nccc3ccccc23)cc1,1.65
17,COc1ccccc1-c1nc(SCc2ccccn2)n[nH]1,8.67
18,Fc1cc(Cl)cc2ccc(-c3ccccc3)nc12,1.45
19,CCS(=O)(=O)n1nc(-c2ccc(OC)cc2)nc1SC,5.54
20,Cn1c(C(=O)N/N=C/c2ccccc2)cc2ccccc21,2.84
